Laboratory results as given in patent US9120781B2, “Selective glycosidase inhibitors and uses thereof” (Simon Fraser University, priority 2010, dated 2015).

Target: human O-GlcNAcase (Homo sapiens (Human), UniProt O60502)
Assay: Assay for determination of KI values for inhibition of O-GlcNAcase activity (fluorescence-based hOGA)
Type: biochemical
Details: purified human O-GlcNAcase, 4-Methylumbelliferyl N-acetyl-β-D-glucosaminide substrate, pH 7.0, Cheng-Prusoff
Protocol: Assay for Determination of KI Values for Inhibition of O-GlcNAcase Activity
Experimental Procedure for Kinetic Analyses:
Enzymatic reactions are carried out in a reaction containing 50 mM NaH2PO4, 100 mM NaCl and 0.1% BSA (pH 7.0) using 2 mM 4-Methylumbelliferyl N-acetyl-β-D-glucosaminide dihydrate (Sigma M2133) dissolved in ddH2O, as a substrate. The amount of purified human O-GlcNAcase enzyme used in the reaction is 0.7 nM. Test compound of varying concentrations is added to the enzyme prior to initiation of the reaction. The reaction is performed at room temperature in a 96-well plate and is initiated with the addition of substrate. The production of fluorescent product is measured every 60 sec for 45 min with a Tecan Infinite M200 plate-reader with excitation at 355 nm and emission detected at […], with 4-Methylumbelliferone (Sigma M1381) used to produce a standard curve. The slope of product production is determined for each concentration of compound tested and plotted, using standard curve fitting algorithms for sigmoidal dose response curves. The values for a four parameter logistic curve fit of the data are determined.

Chain of human O-GlcNAcase (O60502 whole entry): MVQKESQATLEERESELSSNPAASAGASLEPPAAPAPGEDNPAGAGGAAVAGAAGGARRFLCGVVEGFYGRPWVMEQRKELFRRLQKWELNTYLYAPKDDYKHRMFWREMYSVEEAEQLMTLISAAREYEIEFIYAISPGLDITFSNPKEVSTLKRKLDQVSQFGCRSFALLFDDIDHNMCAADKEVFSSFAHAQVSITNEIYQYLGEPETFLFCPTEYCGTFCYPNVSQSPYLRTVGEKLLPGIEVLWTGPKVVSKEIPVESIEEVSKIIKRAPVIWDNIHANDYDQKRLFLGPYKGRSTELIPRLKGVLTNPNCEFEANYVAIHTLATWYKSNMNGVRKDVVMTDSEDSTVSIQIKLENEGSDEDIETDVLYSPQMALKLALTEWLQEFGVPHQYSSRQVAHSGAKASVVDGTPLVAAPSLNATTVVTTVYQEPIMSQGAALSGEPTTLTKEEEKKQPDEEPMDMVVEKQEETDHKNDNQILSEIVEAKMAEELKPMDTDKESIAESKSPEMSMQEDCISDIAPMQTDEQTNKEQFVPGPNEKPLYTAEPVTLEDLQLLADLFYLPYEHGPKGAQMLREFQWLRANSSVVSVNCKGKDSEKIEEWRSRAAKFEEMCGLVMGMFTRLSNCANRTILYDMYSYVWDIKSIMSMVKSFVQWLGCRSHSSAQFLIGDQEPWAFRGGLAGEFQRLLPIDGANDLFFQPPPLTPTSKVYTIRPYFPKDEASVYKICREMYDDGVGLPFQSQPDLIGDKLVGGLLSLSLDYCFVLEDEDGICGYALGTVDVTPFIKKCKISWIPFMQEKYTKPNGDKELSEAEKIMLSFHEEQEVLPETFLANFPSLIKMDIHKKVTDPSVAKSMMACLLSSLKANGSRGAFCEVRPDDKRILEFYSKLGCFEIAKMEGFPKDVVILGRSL

Row | SMILES | Ki [nM]
1 | OC[C@H]1C[C@@H]2OC(N3CCC3)=N[C@@H]2[C@@H](O)[C@@H]1O [Example 18, (3aR,4R,5R,6R,7aS)-2-(azetidin-1-yl)-6-(hydroxymethyl)-3a,4,5,6,7,7a-hexahydrobenzo[d]oxazole-4,5-diol] | 0.13
2 | CN(C)C1=N[C@@H]2[C@@H](O)[C@H](O)[C@@H](CO)C[C@@H]2S1 [Example 22, (3aR,4R,5R,6R,7aS)-2-(dimethylamino)-6-(hydroxymethyl)-3a,4,5,6,7,7a-hexahydrobenzo[d]thiazole-4,5-diol] | 0.5

Continued, values first:

Row | Ki [nM] | SMILES
3 | 0.6 | CCNC1=N[C@@H]2[C@@H](O)[C@H](O)[C@@H](CO)C[C@@H]2O1 [Example 9, (3aR,4R,5R,6R,7aS)-2-(ethylamino)-6-(hydroxymethyl)-3a,4,5,6,7,7a-hexahydrobenzo[d]oxazole-4,5-diol]
4 | 484 | CN(C)C1=N[C@H]2[C@H](O)[C@@H](O)[C@H](CO)C[C@H]2S1 [Example 23, (3aS,4S,5S,6S,7aR)-2-(dimethylamino)-6-(hydroxymethyl)-3a,4,5,6,7,7a-hexahydrobenzo[d]thiazole-4,5-diol]
5 | 0.2 | CNC1=N[C@@H]2[C@@H](O)[C@H](O)[C@@H](CO)C[C@@H]2S1 [Example 26, (3aR,4R,5R,6R,7aS)-2-(methylamino)-6-(hydroxymethyl)-3a,4,5,6,7,7a-hexahydrobenzo[d]thiazole-4,5-diol]
6 | 2.5 | OC[C@H]1C[C@@H]2OC(NCCF)=N[C@@H]2[C@@H](O)[C@@H]1O [Example 32, (3aR,4R,5R,6R,7aS)-2-((2-fluoroethyl)amino)-6-(hydroxymethyl)-3a,4,5,6,7,7a-hexahydrobenzo[d]oxazole-4,5-diol 2,2,2-trifluoroacetate]
